Data published in ChEMBL document CHEMBL6071146, “Synthesis and identification of a selective FGFR2 degrader with potent antiproliferative effects in gastric cancer” (Eur J Med Chem, 2024).

How the values were obtained:
SNU-16 = test: Antiproliferative activity against human SNU-16 cells incubated for 72 hrs by MTT assay; details: SNU-16, 72 h
[1] = Antiproliferative activity against human KATO III cells incubated for 72 hrs by MTT assay

## COc1cc(OC)cc(N(CCNC(C)C)c2ccc3ncc(-c4cnn(CCCCCCC(=O)NCC(=O)NCCNc5cccc6c5C(=O)N(C5CCC(=O)NC5=O)C6=O)c4)nc3c2)c1 (stereo not drawn)
SNU-16
  IC50: 1 nM
[1]
  IC50: 1 nM

## COc1cc(OC)cc(N(CCNC(C)C)c2ccc3ncc(-c4cnn(CCCCCCCCC(=O)NCCNc5cccc6c5C(=O)N(C5CCC(=O)NC5=O)C6=O)c4)nc3c2)c1 (stereo not drawn)
SNU-16
  IC50: < 0.17 nM
[1]
  IC50: < 0.17 nM

## COc1cc(OC)cc(N(CCNC(C)C)c2ccc3ncc(-c4cnn(CCCCCC(=O)NCCNc5cccc6c5C(=O)N(C5CCC(=O)NC5=O)C6=O)c4)nc3c2)c1 (stereo not drawn)
SNU-16
  IC50: 1 nM
[1]
  IC50: 51 nM

## COc1cc(OC)cc(N(CCNC(C)C)c2ccc3ncc(-c4cnn(CCOCCOCC(=O)NCCNc5cccc6c5C(=O)N(C5CCC(=O)NC5=O)C6=O)c4)nc3c2)c1 (stereo not drawn)
SNU-16
  IC50: 1 nM
[1]
  IC50: 208 nM

## COc1cc(OC)cc(N(CCNC(C)C)c2ccc3ncc(-c4cnn(CCCC(=O)NCC(=O)NCCNc5cccc6c5C(=O)N(C5CCC(=O)NC5=O)C6=O)c4)nc3c2)c1 (stereo not drawn)
SNU-16
  IC50: 22 nM
[1]
  IC50: 2 nM

## COc1cc(OC)cc(N(CCNC(C)C)c2ccc3ncc(-c4cnn(CCCCCCCCCC(=O)NCCNc5cccc6c5C(=O)N(C5CCC(=O)NC5=O)C6=O)c4)nc3c2)c1 (stereo not drawn)
SNU-16
  IC50: < 0.17 nM
[1]
  IC50: 2 nM

## COc1cc(OC)cc(N(CCNC(C)C)c2ccc3ncc(-c4cnn(CC(=O)NCCNc5cccc6c5C(=O)N(C5CCC(=O)NC5=O)C6=O)c4)nc3c2)c1 (stereo not drawn)
SNU-16
  IC50: 48 nM
[1]
  IC50: 463 nM

## COc1cc(OC)cc(N(CCNC(C)C)c2ccc3ncc(-c4cnn(CCCC(=O)NCCNc5cccc6c5C(=O)N(C5CCC(=O)NC5=O)C6=O)c4)nc3c2)c1 (stereo not drawn)
SNU-16
  IC50: 234 nM
[1]
  IC50: 172 nM

## COc1cc(OC)cc(N(CCNC(C)C)c2ccc3ncc(-c4cnn(CCOCC(=O)NCCNc5cccc6c5C(=O)N(C5CCC(=O)NC5=O)C6=O)c4)nc3c2)c1 (stereo not drawn)
SNU-16
  IC50: 23 nM
[1]
  IC50: 388 nM
